Experimental data as given in patent publication US9469645B2, “Compounds and compositions for the treatment of parasitic diseases” (Novartis AG, priority 2009, dated 2016).
Read-outs that look alike come from different tables or passages of the source.

How the values were obtained:
[1] = tested on: 3D7 P. falciparum strain; assay: parasite proliferation assay in infected red blood cells (SYBR Green I); assay type: cell-based, Plasmodium falciparum; conditions: 3D7 strain, read-out: EC50 3D7 strain
Method in brief: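 P. falciparum 3D7 grown in O+ human erythrocytes to 3–8% parasitemia and exposed to compounds. Proliferation read as the increase in parasite DNA. Detection used SYBR Green I in saponin/triton-X/EDTA lysis buffer, with overnight lysis at room temperature.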

[2] = tested on: W2 strain; assay: parasite proliferation assay in infected red blood cells (SYBR Green I), W2 strain; assay type: cell-based, Plasmodium falciparum
Description: (§1) Compounds of the invention can be assayed to measure their capacity to inhibit proliferation of parasitemia in infected red blood cells. The proliferation is quantified by the addition of SYBR Green I (INVITROGEN)® dye which has a high affinity for double stranded DNA.

[3] = tested on: NF54; assay: parasite proliferation assay in infected red blood cells (SYBR Green I), NF54 strain; assay type: cell-based; conditions: Plasmodium falciparum, 3D7 / NF54, Erythrocyte; cell marked (NF54): NF54 strain instead of 3D7; read-out: EC50 (NF54), printed in the 3D7 strain column
Description: as §1

[4] = tested on: W2 strain; assay: parasite proliferation assay in infected red blood cells (SYBR Green I), W2 strain; assay type: cell-based; conditions: Plasmodium falciparum, Erythrocyte
Description: as §1

[5] = Plasmodium falciparum, 3D7, Erythrocyte
[6] = Plasmodium falciparum, Erythrocyte

CNC(=O)c1cccc(Nc2c(-c3ccc(F)cc3)nc3n2CCN(C(=O)CN)C3(C)C)c1 [Compound 553]
EC50 [1, 5]: 2370 nM | EC50 [2, 6]: 4660 nM

CC1(C)NCCn2c1nc(-c1ccc(F)cc1)c2Nc1cc(F)c(F)c(F)c1 [Compound 555]
EC50 [1, 5]: 10 nM | EC50 [2, 6]: 16 nM

CN1Cc2nc(-c3ccc(F)cc3)c(Nc3ccc(Cl)cc3)n2CC1(C)C [Compound 556, N-(4-chlorophenyl)-2-(4-fluorophenyl)-6,6,7-trimethyl-5,6,7,8-tetrahydroimidazo[1,2-a]pyrazin-3-amine]
EC50 [1, 5]: 60 nM | EC50 [2, 6]: 75 nM

CC1(C)Cn2c(nc(-c3ccc(F)cc3)c2Nc2ccc(Cl)cc2)CN1C(=O)CN [Compound 557]
EC50 [1, 5]: 20 nM | EC50 [2, 6]: 20 nM

CC1(C)Cn2c(nc(-c3ccc(F)cc3)c2Nc2ccc(Cl)cc2)CN1 [Compound 558]
EC50 [1, 5]: 60 nM | EC50 [2, 6]: 89 nM

C[C@@H]1NC(=O)Cn2c1nc(-c1ccc(F)cc1)c2Nc1ccc(Cl)c(F)c1 [Compound 559]
EC50 [1, 5]: 530 nM | EC50 [2, 6]: 642 nM

Cc1cc(Nc2c(-c3ccc(F)cc3)nc3n2CC(=O)NC3(C)C)nn1C [Compound 560]
EC50 [1, 5]: 3610 nM | EC50 [2, 6]: 5220 nM

CCN1CCCC1CNc1c(-c2ccc(F)cc2)nc2n1CC(=O)NC2(C)C (stereo not shown) [Compound 561]
EC50 [1, 5]: 7170 nM | EC50 [2, 6]: 4400 nM

CC(C)[C@@H]1NC(=O)Cn2c1nc(-c1ccc(F)cc1)c2Nc1ccc(Cl)c(F)c1 [Compound 562]
EC50 [1, 5]: 4820 nM | EC50 [2, 6]: 6290 nM

C[C@@H]1NC(=O)Cn2c1nc(-c1ccc(F)cc1)c2Nc1ccc(Cl)cc1 [Compound 563]
EC50 [1, 5]: 310 nM | EC50 [2, 6]: 445 nM

C[C@H]1NC(=O)Cn2c1nc(-c1ccc(F)cc1)c2Nc1ccc(Cl)c(F)c1 [Compound 564]
EC50 [1, 5]: 250 nM | EC50 [2, 6]: 359 nM

C[C@H]1NC(=O)Cn2c1nc(-c1ccc(F)cc1)c2Nc1ccc(Cl)cc1 [Compound 565]
EC50 [1, 5]: 70 nM | EC50 [2, 6]: 105 nM

CC1(C)NC(=O)Cn2c1nc(-c1ccc(F)cc1)c2Nc1cnc2ccccc2c1 [Compound 566]
EC50 [1, 5]: 5480 nM | EC50 [2, 6]: 4460 nM

CC1(C)NC(=O)Cn2c1nc(-c1ccc(F)cc1)c2Nc1ccc(S(C)(=O)=O)cc1 [Compound 567]
EC50 [1, 5]: 6460 nM | EC50 [2, 6]: 8460 nM

CN1CCN(c2ccc(Nc3c(-c4ccc(F)cc4)nc4n3CC(=O)NC4(C)C)cc2)CC1 [Compound 568]
EC50 [1, 5]: > 8040 nM | EC50 [2, 6]: > 11300 nM

CN1CCN(Cc2cccc(Nc3c(-c4ccc(F)cc4)nc4n3CC(=O)NC4(C)C)c2)CC1 [Compound 569]
EC50 [1, 5]: 9270 nM | EC50 [2, 6]: 7920 nM

CC1(C)c2nc(-c3ccc(F)cc3)c(Nc3ccc(S(C)(=O)=O)cc3)n2CCN1C(=O)CN [Compound 570]
EC50 [1, 5]: 5680 nM | EC50 [2, 6]: 5560 nM

CN1CCN(c2ccc(Nc3c(-c4ccc(F)cc4)nc4n3CCN(C(=O)CN)C4(C)C)cc2)CC1 [Compound 571]
EC50 [1, 5]: 6200 nM | EC50 [2, 6]: 7480 nM

CN1CCN(c2ccc(Nc3c(-c4ccc(F)cc4)nc4n3CCNC4(C)C)cc2)CC1 [Compound 572]
EC50 [1, 5]: 11200 nM | EC50 [2, 6]: 8730 nM

Cc1ccc(Nc2c(-c3ccc(F)cc3)nc3n2CC(C)(C)N(C(=O)CN)C3)cc1 [Compound 573]
EC50 [1, 5]: 40 nM | EC50 [2, 6]: 55 nM

CC1(C)Cn2c(nc(-c3ccc(F)cc3)c2Nc2ccc(F)cc2)CN1C(=O)CN [Compound 574]
EC50 [1, 5]: 80 nM | EC50 [2, 6]: 111 nM

CC1(C)Cn2c(nc(-c3ccc(F)cc3)c2Nc2ccc(F)c(F)c2)CN1C(=O)CN [Compound 575]
EC50 [1, 5]: 80 nM | EC50 [2, 6]: 81 nM

CC1(C)Cn2c(nc(-c3ccc(F)cc3)c2Nc2ccc(Cl)c(F)c2)CN1C(=O)CN [Compound 576]
EC50 [1, 5]: 200 nM | EC50 [2, 6]: 234 nM

CC1(C)Cn2c(nc(-c3ccc(F)cc3)c2Nc2ccc(C#N)c(F)c2)CN1C(=O)CN [Compound 577]
EC50 [1, 5]: 630 nM | EC50 [2, 6]: 611 nM

Cc1ccc(Nc2c(-c3ccc(F)cc3)nc3n2CC(C)(C)NC3)cc1 [Compound 578]
EC50 [1, 5]: 250 nM | EC50 [2, 6]: 339 nM

CC1(C)Cn2c(nc(-c3ccc(F)cc3)c2Nc2ccc(F)cc2)CN1 [Compound 579]
EC50 [1, 5]: 180 nM | EC50 [2, 6]: 146 nM

CC1(C)Cn2c(nc(-c3ccc(F)cc3)c2Nc2ccc(F)c(F)c2)CN1 [Compound 580]
EC50 [1, 5]: 150 nM | EC50 [2, 6]: 169 nM

CC1(C)Cn2c(nc(-c3ccc(F)cc3)c2Nc2ccc(C#N)c(F)c2)CN1 [Compound 581]
EC50 [1, 5]: 650 nM | EC50 [2, 6]: 668 nM

COc1ccc(CN2Cc3nc(-c4cccc(F)c4)c(Nc4ccc(C)cc4)n3C(C)(C)C2)cc1 [Compound 582]
EC50 [1, 5]: 5560 nM | EC50 [2, 6]: 5920 nM

CC(C)(N)C(=O)N1CCn2c(nc(-c3ccc(F)cc3)c2Nc2ccc(F)cc2)C1(C)C [Compound 583]
EC50 [1, 5]: 10 nM | EC50 [2, 6]: 9 nM

CC(C)(N)C(=O)N1CCn2c(nc(-c3ccc(F)cc3)c2Nc2ccc(Cl)cc2)C1(C)C [Compound 584]
EC50 [1, 5]: 20 nM | EC50 [2, 6]: 21 nM

CC(C)(N)C(=O)N1CCn2c(nc(-c3ccc(F)cc3)c2Nc2ccc(F)c(F)c2)C1(C)C [Compound 585]
EC50 [1, 5]: 10 nM | EC50 [2, 6]: 7 nM

CC(C)(N)C(=O)N1CCn2c(nc(-c3ccc(F)cc3)c2Nc2ccc(F)c(Cl)c2)C1(C)C [Compound 586]
EC50 [1, 5]: 10 nM | EC50 [2, 6]: 7 nM

CC(C)(N)C(=O)N1CCn2c(nc(-c3ccc(F)cc3)c2Nc2ccc(Cl)c(Cl)c2)C1(C)C [Compound 587]
EC50 [1, 5]: 10 nM | EC50 [2, 6]: 12 nM

Cc1cc(Nc2c(-c3ccc(F)cc3)nc3n2CCN(C(=O)C(C)(C)N)C3(C)C)ccc1F [Compound 588]
EC50 [1, 5]: 10 nM | EC50 [2, 6]: 4 nM

Cc1cc(Nc2c(-c3ccc(F)cc3)nc3n2CCN(C(=O)C(C)(C)N)C3(C)C)ccc1Cl [Compound 589]
EC50 [1, 5]: 10 nM | EC50 [2, 6]: 6 nM

Cc1ccc(Nc2c(-c3ccc(F)cc3)nc3n2CCN(C(=O)C(C)(C)N)C3(C)C)cc1C#N [Compound 590]
EC50 [1, 5]: 30 nM | EC50 [2, 6]: 18 nM

CC(C)(N)C(=O)N1CCn2c(nc(-c3ccc(F)cc3)c2Nc2ccc(C#N)c(Cl)c2)C1(C)C [Compound 591]
EC50 [1, 5]: 60 nM | EC50 [2, 6]: 46 nM

Cc1ccc(Nc2c(-c3cccc(F)c3)nc3n2C(C)(C)CN(C(=O)[C@@H](O)C(C)C)C3)cc1 [Compound 592]
EC50 [1, 5]: 6010 nM | EC50 [2, 6]: 5260 nM

Cc1ccc(Nc2c(-c3cccc(F)c3)nc3n2C(C)(C)CN(C(=O)C(C)(C)N)C3)cc1 [Compound 593]
EC50 [1, 5]: 5060 nM | EC50 [2, 6]: 3940 nM

Cc1ccc(Nc2c(-c3cccc(F)c3)nc3n2C(C)(C)CN(C(=O)CN)C3)cc1 [Compound 594]
EC50 [1, 5]: 20 nM | EC50 [2, 6]: 32 nM

CC(C)[C@H]1c2nc(-c3ccc(F)cc3)c(Nc3ccc(Cl)c(F)c3)n2CCN1C(=O)CN [Compound 595]
EC50 [1, 5]: 340 nM | EC50 [2, 6]: 485 nM

C[C@@H]1c2nc(-c3ccc(F)cc3)c(Nc3ccc(Cl)c(F)c3)n2CCN1C(=O)CN [Compound 596]
EC50 [1, 5]: 30 nM | EC50 [2, 6]: 29 nM

C[C@H]1c2nc(-c3ccc(F)cc3)c(Nc3ccc(Cl)c(F)c3)n2CCN1C(=O)CN [Compound 597]
EC50 [1, 5]: 30 nM | EC50 [2, 6]: 24 nM

CC1(C)c2nc(-c3ccc(F)cc3)c(Nc3ccc(F)cc3)n2CC(=O)N1CCN [Compound 687, 7-(2-aminoethyl)-2-(4-fluorophenyl)-3-(4-fluorophenylamino)-8,8-dimethyl-7,8-dihydroimidazo[1,2-a]pyrazin-6(5H)-one]
EC50 [3]: 3420 nM | EC50 [4]: 3350 nM

CC1(C)c2nc(-c3ccc(F)cc3)c(Nc3ccc(F)cc3)n2CC(=O)N1CCO [Compound 688]
EC50 [3]: 106 nM | EC50 [4]: 134 nM

CC1(C)c2nc(-c3ccc(F)cc3)c(CC3CCCCC3)n2CCN1C(=O)CN [Compound 699]
EC50 [3]: 678 nM

CC1(C)c2nc(-c3ccc(F)cc3)c(Oc3ccc(Cl)cc3)n2CCN1C(=O)CN [Compound 710]
EC50 [3]: 28 nM

CC1(C)c2nc(-c3ccc(F)cc3)c(Oc3ccc(F)c(F)c3)n2CCN1C(=O)CN [Compound 711]
EC50 [3]: 34 nM

Cc1cc(Oc2c(-c3ccc(F)cc3)nc3n2CCN(C(=O)CN)C3(C)C)ccc1F [Compound 712]
EC50 [3]: 19 nM

Cc1ccc(S(=O)(=O)c2c(-c3ccc(F)cc3)nc3n2CCN(C(=O)CN)C3(C)C)cc1 [Compound 725]
EC50 [3]: 5210 nM

CC1(C)c2nc(-c3ccc(F)cc3)c(Nc3ccc(F)cc3)n2CCN1C(=O)CNC(=O)CCC1=[N+]2C(=Cc3ccc(-c4ccccc4)n3[B-]2(F)F)C=C1 [Compound 731]
EC50 [3]: 2270 nM | EC50 [4]: 5610 nM

COc1ccc(-c2ccc3n2[B-](F)(F)[N+]2=C(C)C(CCC(=O)NCCCCCC(=O)NCC(=O)N4CCn5c(nc(-c6ccc(F)cc6)c5Nc5ccc(F)cc5)C4(C)C)=C(C)C2=C3)cc1 [Compound 732]
EC50 [3]: 1220 nM | EC50 [4]: 1440 nM

tert-butyl 1-(2-(4-fluorophenyl)-5,6-dihydroimidazo[1,2-a]pyrazin-7(8H)-yl)-2-methyl-1-oxopropan-2-ylcarbamate [Compound 530]
EC50 [1]: 1230 nM | EC50 ([2]; W2 strain): 6420 nM
